Laboratory results published in patent US4429044A, “Preparation of an alkaline protease from flavobacterium arborescens” (Miles Laboratories, Inc., priority 1982, dated 1984).

System: F. arborescens protease
Type: biochemical, Flavobacterium arborescens

Molecule	Activity of protease in presence of inhibitor [units]	Effect of inhibitor on protease activity (in words)
O=C(O)CN(CCN(CC(=O)O)CC(=O)O)CC(=O)O [EDTA, ethylenediamine tetraacetate]	4.1	–
CCN1C(=O)C=CC1=O [NEM, N--ethyl maleimide]	2.0	–
O=S(=O)(F)Cc1ccccc1 [PMSF, phenylmethyl sulfonyl fluoride]	1.9	no effect
SSI: streptomyces subtilisin inhibitor (protein, UniProt P01006 32-144, looked up) Subtilisin inhibitor: DAPSALYAPSALVLTVGKGVSATTAAPERAVTLTCAPGPSGTHPAAGSACADLAAVGGDLNALTRGEDVMCPMVYDPVLLTVDGVWQGKRVSYERVFSNECEMNAHGSSVFAF	1.6	strongly inhibited
